Converted amounts (≈) assume the structure as drawn.
Tests used:
Test in all cases: in vitro antibacterial evaluation, MIC by broth dilution
Format in all cases: cell-based
Enterococcus sp. = test system: Enterococcus sp.
Procedure, shortened: (§1)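 Following National Committee for Clinical Laboratory Standards recommendations (M7-A2), susceptibility was measured by dilution in Muller-Hinton II […]. Bacteria were seeded at 5×10^5 CFU/mL against compound concentrations from 64 down to 0.06 μg/mL.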

Staphylococcus sp. = details: broth dilution, 18 hours at 35° C.; for MIC Staphylococcus aureus (ATCC 29213): strain ATCC 29213; for MIC Staphylococcus aureus (GC 1131): strain GC 1131; for MIC Staphylococcus aureus (GC 3051): strain GC 3051; for MIC Staphylococcus aureus (GC 3053): strain GC 3053; for MIC Staphylococcus aureus (GC 4541): strain GC 4541; for MIC Staphylococcus aureus (GC 4542): strain GC 4542; for MIC Staphylococcus aureus-SMITH (GC 4543): strain GC 4543; for MIC Staphylococcus aureus (GC 4544): strain GC 4544; for MIC Staphylococcus aureus (GC 4545): strain GC 4545; for MIC Staphylococcus haemolyticus (GC 4546): strain GC 4546; for MIC Coagulase Negative Staphylococcus (GC 4547): strain GC 4547; for MIC Coagulase Negative Staphylococcus (GC 4548): strain GC 4548; for MIC Coagulase Negative Staphylococcus (GC 4549): strain GC 4549; for MIC Coagulase Negative Staphylococcus (GC 4551): strain GC 4551; for MIC Coagulase Negative Staphylococcus (GC 6257): strain GC 6257
Procedure, shortened: as §1

Streptococcus sp. = test system: Streptococcus sp.
Procedure, shortened: as §1

Escherichia coli = details: 18 hours at 35° C.
Procedure, shortened: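 Broth dilution in Muller-Hinton II medium per NCCLS standard M7-A2, with an inoculum of 5×10^5 CFU/mL and antibiotic tested over 64-0.06 μg/mL. MIC was taken as the lowest concentration inhibiting visible growth.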

[1] = broth dilution, 18 hours at 35° C.

## CC(c1ccccc1)C1NC(=O)CNC(=O)C(CO)NC(=O)C(CC2CN(Cc3ccccc3)C(=NCc3ccccc3)N2C2OC(CO)C(O)C(O)C2O)NC(=O)C(CC2CN(Cc3ccccc3)C(=NCc3ccccc3)N2Cc2ccccc2)NC(=O)C(Cc2ccc(OC3OC(CO)C(OC4OC(CO)C(O)C(O)C4O)C(O)C3O)cc2)NC1=O (stereo not drawn) [Example 73, Cyclo[3-[1,3-benzyl-2-(benzylimino)imidazolidin-4-yl]alanyl-3-[1-benzyl-2-(benzylimino)-3-hexopyranosylimidazolidin-4-yl]alanylserylglycyl-β-methylphenylalanyl-O-(4-O-hexopyranosylhexopyranosyl)tyrosyl]]
Enterococcus sp.; Enterococcus avium (GC 4558); broth dilution, 18 hours at 35° C.
  MIC Enterococcus avium (GC 4558): 128 µg/mL (≈ 74.7 µM)
Enterococcus sp.; Enterococcus faecalis (ATCC 29212); broth dilution, 18 hours at 35° C.
  MIC Enterococcus faecalis (ATCC 29212): >128 µg/mL
Enterococcus sp.; Enterococcus faecalis (GC 4552); broth dilution, 18 hours at 35° C.
  MIC Enterococcus faecalis (GC 4552): >128 µg/mL
Enterococcus sp.; Enterococcus faecalis (GC 4553); broth dilution, 18 hours at 35° C.
  MIC Enterococcus faecalis (GC 4553): >128 µg/mL
Enterococcus sp.; Enterococcus faecalis (GC 4554); broth dilution, 18 hours at 35° C.
  MIC Enterococcus faecalis (GC 4554): >128 µg/mL
Enterococcus sp.; Enterococcus faecalis (GC 6189); broth dilution, 18 hours at 35° C.
  MIC Enterococcus faecalis (GC 6189): >128 µg/mL
Enterococcus sp.; Enterococcus faecium (GC 2243); broth dilution, 18 hours at 35° C.
  MIC Enterococcus faecium (GC 2243): >128 µg/mL
Enterococcus sp.; Enterococcus faecium (GC 4556); broth dilution, 18 hours at 35° C.
  MIC Enterococcus faecium (GC 4556): >128 µg/mL
Enterococcus sp.; Enterococcus faecium (GC 4557); broth dilution, 18 hours at 35° C.
  MIC Enterococcus faecium (GC 4557): 128 µg/mL (≈ 74.7 µM)
Enterococcus sp.; [1]
  MIC Enterococcus avium (GC 4558): 128 µg/mL (≈ 74.7 µM)
  MIC Enterococcus faecalis (ATCC 29212): >128 µg/mL
  MIC Enterococcus faecalis (GC 2242): >128 µg/mL
  MIC Enterococcus faecalis (GC 2691): >128 µg/mL
  MIC Enterococcus faecalis (GC 3059): >128 µg/mL
  MIC Enterococcus faecalis (GC 4552): >128 µg/mL
  MIC Enterococcus faecalis (GC 4553): >128 µg/mL
  MIC Enterococcus faecalis (GC 4554): >128 µg/mL
  MIC Enterococcus faecalis (GC 6189): >128 µg/mL
  MIC Enterococcus faecium (GC 2243): >128 µg/mL
  MIC Enterococcus faecium (GC 4556): >128 µg/mL
  MIC Enterococcus faecium (GC 4557): 128 µg/mL (≈ 74.7 µM)
Enterococcus sp.; broth dilution, 18 hours at 35° C.; strain GC 2242
  MIC Enterococcus faecalis (GC 2242): >128 µg/mL
Enterococcus sp.; broth dilution, 18 hours at 35° C.; strain GC 2691
  MIC Enterococcus faecalis (GC 2691): >128 µg/mL
Enterococcus sp.; broth dilution, 18 hours at 35° C.; strain GC 3059
  MIC Enterococcus faecalis (GC 3059): >128 µg/mL
Staphylococcus sp.
  MIC Staphylococcus aureus (ATCC 29213): >128 µg/mL
  MIC Staphylococcus aureus (GC 1131): >128 µg/mL
  MIC Staphylococcus aureus (GC 3051): >128 µg/mL
  MIC Staphylococcus aureus (GC 3053): >128 µg/mL
  MIC Staphylococcus aureus (GC 4541): >128 µg/mL
  MIC Staphylococcus aureus (GC 4542): >128 µg/mL
  MIC Staphylococcus aureus-SMITH (GC 4543): >128 µg/mL
  MIC Staphylococcus aureus (GC 4544): >128 µg/mL
  MIC Staphylococcus aureus (GC 4545): >128 µg/mL
  MIC Staphylococcus haemolyticus (GC 4546): >128 µg/mL
  MIC Coagulase Negative Staphylococcus (GC 4547): >128 µg/mL
  MIC Coagulase Negative Staphylococcus (GC 4548): >128 µg/mL
  MIC Coagulase Negative Staphylococcus (GC 4549): >128 µg/mL
  MIC Coagulase Negative Staphylococcus (GC 4551): >128 µg/mL
  MIC Coagulase Negative Staphylococcus (GC 6257): >128 µg/mL
Streptococcus sp.; [1]
  MIC Streptococcus agalactiae (GC 4564): >128 µg/mL
  MIC Streptococcus pneumoniae (ATCC 6301): 128 µg/mL (≈ 74.7 µM)
  MIC Streptococcus pneumoniae (GC 1894): 64 µg/mL (≈ 37.3 µM)
  MIC Streptococcus pneumoniae (GC 4565): 128 µg/mL (≈ 74.7 µM)
  MIC Streptococcus pyogenes (GC 4563): >128 µg/mL
Streptococcus sp.; broth dilution, 18 hours at 35° C.; strain ATCC 6301
  MIC Streptococcus pneumoniae (ATCC 6301): 128 µg/mL (≈ 74.7 µM)
Streptococcus sp.; broth dilution, 18 hours at 35° C.; strain GC 1894
  MIC Streptococcus pneumoniae (GC 1894): 64 µg/mL (≈ 37.3 µM)
Streptococcus sp.; broth dilution, 18 hours at 35° C.; strain GC 4563
  MIC Streptococcus pyogenes (GC 4563): >128 µg/mL
Streptococcus sp.; broth dilution, 18 hours at 35° C.; strain GC 4564
  MIC Streptococcus agalactiae (GC 4564): >128 µg/mL
Streptococcus sp.; broth dilution, 18 hours at 35° C.; strain GC 4565
  MIC Streptococcus pneumoniae (GC 4565): 128 µg/mL (≈ 74.7 µM)
Escherichia coli
  MIC Escherichia coli (ATCC 25922): >128 µg/mL
  MIC Escherichia coli (GC 4559): >128 µg/mL
  MIC Escherichia coli (GC 4560): 16 µg/mL (≈ 9.34 µM)

## CCC(=O)Nc1cc(CC2NC(=O)C(C(C)c3ccccc3)NC(=O)CNC(=O)C(CO)NC(=O)C(C(O)C3CNC(=N)N3C3OC(CO)C(O)C(O)C3O)NC(=O)C(C(O)C3CNC(=N)N3)NC2=O)ccc1O (stereo not drawn) [Example 14, Cyclo[glycyl-β-methylphenylalanyl-3-(propanamido)tyrosyl-3-(2-iminoimidazolidin-4-yl)seryl-3-(3-hexopyranosyl-2-iminoimidazolidin-4-yl)serylseryl]]
Enterococcus sp.; strain ATCC 29212; broth dilution, 18 hours at 35° C.
  MIC Enterococcus faecalis (ATCC 29212): >128 µg/mL
Enterococcus sp.; strain GC 2242; broth dilution, 18 hours at 35° C.
  MIC Enterococcus faecalis (GC 2242): >128 µg/mL
Enterococcus sp.; strain GC 2243; broth dilution, 18 hours at 35° C.
  MIC Enterococcus faecium (GC 2243): >128 µg/mL
Enterococcus sp.; strain GC 2691; broth dilution, 18 hours at 35° C.
  MIC Enterococcus faecalis (GC 2691): >128 µg/mL
Enterococcus sp.; strain GC 3059; broth dilution, 18 hours at 35° C.
  MIC Enterococcus faecalis (GC 3059): >128 µg/mL
Enterococcus sp.; strain GC 4552; broth dilution, 18 hours at 35° C.
  MIC Enterococcus faecalis (GC 4552): >128 µg/mL
Enterococcus sp.; strain GC 4553; broth dilution, 18 hours at 35° C.
  MIC Enterococcus faecalis (GC 4553): >128 µg/mL
Enterococcus sp.; strain GC 4554; broth dilution, 18 hours at 35° C.
  MIC Enterococcus faecalis (GC 4554): >128 µg/mL
Enterococcus sp.; strain GC 4556; broth dilution, 18 hours at 35° C.
  MIC Enterococcus faecium (GC 4556): >128 µg/mL
Enterococcus sp.; strain GC 4557; broth dilution, 18 hours at 35° C.
  MIC Enterococcus faecium (GC 4557): >128 µg/mL
Enterococcus sp.; strain GC 4558; broth dilution, 18 hours at 35° C.
  MIC Enterococcus avium (GC 4558): 128 µg/mL (≈ 123 µM)
Enterococcus sp.; strain GC 6189; broth dilution, 18 hours at 35° C.
  MIC Enterococcus faecalis (GC 6189): >128 µg/mL
Staphylococcus sp.
  MIC Staphylococcus aureus (ATCC 29213): >128 µg/mL
  MIC Staphylococcus aureus (GC 1131): >128 µg/mL
  MIC Staphylococcus aureus (GC 3051): >128 µg/mL
  MIC Staphylococcus aureus (GC 3053): >128 µg/mL
  MIC Staphylococcus aureus (GC 4541): >128 µg/mL
  MIC Staphylococcus aureus (GC 4542): >128 µg/mL
  MIC Staphylococcus aureus-SMITH (GC 4543): >128 µg/mL
  MIC Staphylococcus aureus (GC 4544): >128 µg/mL
  MIC Staphylococcus aureus (GC 4545): >128 µg/mL
  MIC Staphylococcus haemolyticus (GC 4546): >128 µg/mL
  MIC Coagulase Negative Staphylococcus (GC 4547): >128 µg/mL
  MIC Coagulase Negative Staphylococcus (GC 4548): >128 µg/mL
  MIC Coagulase Negative Staphylococcus (GC 4549): >128 µg/mL
  MIC Coagulase Negative Staphylococcus (GC 4551): >128 µg/mL
  MIC Coagulase Negative Staphylococcus (GC 6257): >128 µg/mL
Streptococcus sp.; strain ATCC 6301; broth dilution, 18 hours at 35° C.
  MIC Streptococcus pneumoniae (ATCC 6301): >128 µg/mL
Streptococcus sp.; strain GC 1894; broth dilution, 18 hours at 35° C.
  MIC Streptococcus pneumoniae (GC 1894): 128 µg/mL (≈ 123 µM)
Streptococcus sp.; strain GC 4563; broth dilution, 18 hours at 35° C.
  MIC Streptococcus pyogenes (GC 4563): >128 µg/mL
Streptococcus sp.; strain GC 4564; broth dilution, 18 hours at 35° C.
  MIC Streptococcus agalactiae (GC 4564): 128 µg/mL (≈ 123 µM)
Streptococcus sp.; strain GC 4565; broth dilution, 18 hours at 35° C.
  MIC Streptococcus pneumoniae (GC 4565): 64 µg/mL (≈ 61.4 µM)
Escherichia coli; strain ATCC 25922, broth dilution
  MIC Escherichia coli (ATCC 25922): >128 µg/mL
Escherichia coli; strain GC 4559, broth dilution
  MIC Escherichia coli (GC 4559): >128 µg/mL
Escherichia coli; strain GC 4560, broth dilution
  MIC Escherichia coli (GC 4560): 128 µg/mL (≈ 123 µM)

— patent publication US6914045B2, “Glycopeptide antibiotics” (Wyeth Holdings Corporation, priority 2001, dated 2005)
